Reference: the CheMixHub viscosity set

Experiment: xn = mol fraction of the nth substance listed

CC1CCCCC1 + CC(C)CC(C)(C)C
viscosity [mPa·s], 101 kPa
Conditions | 298.15 K | 303.15 K | 308.15 K
x1 = 0.1032 | – | 0.462 | –
x1 = 0.105 | – | 0.466 | 0.438
x1 = 0.201 | – | 0.478 | –
x1 = 0.221 | – | 0.4798 | –
x1 = 0.3024 | 0.522 | 0.492 | 0.462
x1 = 0.399 | – | 0.5062 | –
x1 = 0.4039 | 0.539 | 0.508 | 0.476
x1 = 0.4974 | – | 0.524 | –
x1 = 0.4998 | 0.556 | 0.523 | 0.491
x1 = 0.5998 | – | 0.5431 | –
x1 = 0.6064 | 0.577 | 0.543 | 0.509
x1 = 0.6991 | 0.597 | 0.562 | 0.526
x1 = 0.7018 | – | 0.5656 | –
x1 = 0.8004 | 0.62 | 0.583 | 0.546
x1 = 0.8012 | – | 0.5892 | –
x1 = 0.8991 | – | 0.6154 | –
x1 = 0.9007 | 0.648 | 0.608 | 0.568

CCOC(=O)[C@@H](O)[C@H](O)C(=O)OCC + CC(C)CCO
viscosity [mPa·s], 101 kPa
Conditions | x1 = 0.1 | x1 = 0.2 | x1 = 0.3 | x1 = 0.4001 | x1 = 0.5 | x1 = 0.6001 | x1 = 0.6999 | x1 = 0.7997 | x1 = 0.8998
293.15 K | 5.227 | 7.032 | 9.91 | 13.58 | 20.31 | 31.03 | 46.13 | 74.54 | 129.6
298.15 K | 4.438 | 5.859 | 8.123 | 10.83 | 15.81 | 23.2 | 33.35 | 51.5 | 84.95
303.15 K | 3.768 | 4.88 | 6.638 | 8.752 | 12.37 | 17.66 | 24.71 | 36.84 | 58.14
308.15 K | 3.225 | 4.138 | 5.497 | 7.134 | 9.862 | 13.75 | 18.79 | 27.17 | 41.31
313.15 K | 2.774 | 3.487 | 4.567 | 5.855 | 7.945 | 10.86 | 14.56 | 20.53 | 30.25
318.15 K | 2.416 | 3.02 | 3.904 | 4.935 | 6.58 | 8.824 | 11.61 | 15.99 | 22.88
323.15 K | 2.13 | 2.649 | 3.374 | 4.215 | 5.529 | 7.295 | 9.449 | 12.74 | 17.8

CCCCCl + CC(C)CO
viscosity [mPa·s], 101 kPa
Conditions | x1 = 0.0951 | x1 = 0.2057 | x1 = 0.3038 | x1 = 0.4102 | x1 = 0.5035 | x1 = 0.6121 | x1 = 0.7033 | x1 = 0.8022 | x1 = 0.9043
298.15 K | 2.41 | 1.677 | 1.261 | 0.9677 | 0.7931 | 0.6506 | – | 0.5 | 0.4513
313.15 K | 1.576 | 1.152 | 0.9054 | 0.7239 | 0.6137 | 0.5199 | 0.4687 | 0.4153 | 0.3832

CCOC(=O)[C@@H](O)[C@H](O)C(=O)OCC + CC(C)CO
viscosity [mPa·s], 101 kPa
Conditions | x1 = 0.1 | x1 = 0.2 | x1 = 0.3001 | x1 = 0.3999 | x1 = 0.5 | x1 = 0.6001 | x1 = 0.6989 | x1 = 0.7998 | x1 = 0.8994
293.15 K | 5.103 | 7.263 | 10.49 | 15.86 | 24.25 | 34.35 | 50.55 | 88.25 | 140.9
298.15 K | 4.28 | 5.98 | 8.485 | 12.38 | 18.34 | 25.34 | 36.11 | 59.79 | 91.12
303.15 K | 3.601 | 4.928 | 6.848 | 9.831 | 14.09 | 19.07 | 26.5 | 42.09 | 62.16
308.15 K | 3.052 | 4.111 | 5.611 | 7.889 | 11.06 | 14.71 | 19.99 | 30.63 | 43.93
313.15 K | 2.607 | 3.444 | 4.609 | 6.39 | 8.797 | 11.53 | 15.38 | 22.88 | 31.96
318.15 K | 2.249 | 2.956 | 3.912 | 5.322 | 7.201 | 9.298 | 12.19 | 17.64 | 24.09
323.15 K | 1.973 | 2.567 | 3.358 | 4.497 | 5.991 | 7.637 | 9.865 | 13.94 | 18.67

CC1CCCCC1 + CC(C)O
viscosity [mPa·s], 100 kPa
Conditions | x1 = 0.081 | x1 = 0.1601 | x1 = 0.2401 | x1 = 0.35 | x1 = 0.44 | x1 = 0.5602 | x1 = 0.65 | x1 = 0.7401 | x1 = 0.8501 | x1 = 0.9403
293.15 K | 1.88 | 1.47 | 1.17 | 0.89 | 0.78 | 0.72 | 0.73 | 0.75 | 0.77 | 0.76
298.15 K | 1.65 | 1.33 | 1.08 | 0.87 | 0.76 | 0.71 | 0.7 | 0.7 | – | 0.71
303.15 K | – | 1.18 | 0.98 | 0.81 | 0.73 | 0.7 | 0.69 | 0.68 | 0.68 | 0.67
308.15 K | 1.26 | 1.05 | 0.89 | 0.74 | 0.67 | 0.64 | 0.63 | 0.63 | 0.64 | 0.62
313.15 K | 1.1 | 0.92 | 0.79 | 0.65 | 0.6 | 0.58 | 0.57 | 0.58 | 0.59 | 0.6
318.15 K | 0.97 | 0.82 | 0.7 | 0.6 | 0.55 | 0.54 | 0.54 | 0.55 | 0.56 | 0.55
323.15 K | 0.84 | 0.69 | 0.58 | 0.49 | 0.46 | 0.46 | 0.47 | 0.49 | 0.51 | 0.52

CCCCCl + CC(C)O
298.15 K, 101 kPa
Conditions | viscosity [mPa·s]
x2 = 0.1 | 0.438
x2 = 0.1661 | 0.468
x2 = 0.225 | 0.47
x2 = 0.2891 | 0.493
x2 = 0.35 | 0.522
x2 = 0.4295 | 0.579
x2 = 0.5105 | 0.642
x2 = 0.5479 | 0.675
x2 = 0.6603 | 0.809
x2 = 0.7645 | 1.044
x2 = 0.8538 | 1.338
x2 = 0.92 | 1.615

CCOC(=O)c1ccccc1 + CC(C)O
viscosity [mPa·s], 101 kPa
Conditions | x1 = 0.056 | x1 = 0.1177 | x1 = 0.1862 | x1 = 0.2624 | x1 = 0.348 | x1 = 0.4446 | x1 = 0.546 | x1 = 0.681 | x1 = 0.8277
303.15 K | 1.659 | 1.664 | 1.671 | 1.678 | 1.686 | 1.695 | 1.706 | 1.719 | 1.733
308.15 K | 1.501 | 1.508 | 1.515 | 1.525 | 1.532 | 1.541 | 1.551 | 1.563 | 1.577
313.15 K | 1.327 | 1.337 | 1.345 | 1.356 | 1.367 | 1.38 | 1.394 | 1.409 | 1.426
318.15 K | 1.192 | 1.203 | 1.213 | 1.225 | 1.239 | 1.254 | 1.27 | 1.291 | 1.313
323.15 K | 1.074 | 1.085 | 1.099 | 1.114 | 1.13 | 1.15 | 1.167 | 1.194 | 1.222

CCS(=O)CC + CCC#N
viscosity [mPa·s], 101 kPa
Conditions | x1 = 0.0998 | x1 = 0.2002 | x1 = 0.2962 | x1 = 0.3999 | x1 = 0.4953 | x1 = 0.6017 | x1 = 0.6937 | x1 = 0.7999 | x1 = 0.8998
298.15 K | 0.53 | 0.63 | 0.73 | 0.89 | 1.05 | 1.26 | 1.45 | 1.74 | 1.98
303.15 K | 0.49 | 0.59 | 0.69 | 0.83 | 0.96 | 1.15 | 1.35 | 1.56 | 1.84
308.15 K | 0.46 | 0.55 | 0.64 | 0.78 | 0.89 | 1.06 | 1.25 | 1.41 | 1.68
313.15 K | 0.44 | 0.54 | 0.61 | 0.74 | 0.85 | 0.99 | 1.14 | 1.32 | 1.52
318.15 K | 0.42 | 0.5 | 0.59 | 0.69 | 0.78 | 0.92 | – | 1.21 | 1.39
323.15 K | 0.36 | 0.43 | 0.51 | 0.59 | 0.67 | 0.79 | 0.91 | 1.02 | 1.17

CCCCCN + CCC(=O)O
viscosity [mPa·s], 101.33 kPa
Conditions | 293.15 K | 298.15 K | 298.5 K | 303.15 K | 308.15 K | 313.15 K | 318.15 K | 323.15 K
x2 = 0.1 | 1.62 | 1.53 | – | 1.42 | 1.4 | 1.32 | 1.24 | –
x2 = 0.2 | 1.97 | 1.86 | – | 1.74 | 1.69 | 1.6 | 1.51 | –
x2 = 0.3 | 13.7 | 11.78 | – | 10.12 | 8.82 | 7.77 | 6.87 | –
x2 = 0.4 | 85.81 | – | 71.98 | 56.82 | 46.99 | 39.47 | 33.6 | 28.82
x2 = 0.5 | 707.8 | 510.2 | – | 386 | 296.3 | 226.2 | 178.3 | –
x2 = 0.6 | 368.1 | 274.6 | – | 210 | 164.6 | 130.8 | 103.8 | –
x2 = 0.7 | 75.4 | 60.4 | – | 48.75 | 40.4 | 33.8 | 28.4 | –

CC1CCCCC1 + CCC(C)O
viscosity [mPa·s], 100 kPa
Conditions | x1 = 0.0811 | x1 = 0.16 | x1 = 0.24 | x1 = 0.35 | x1 = 0.4401 | x1 = 0.56 | x1 = 0.6501 | x1 = 0.7401 | x1 = 0.8492 | x1 = 0.94
293.15 K | 2.84 | 2.24 | 1.78 | 1.36 | 1.15 | 0.99 | 0.95 | 0.92 | 0.87 | 0.79
298.15 K | 2.4 | 1.91 | 1.53 | 1.17 | – | 0.88 | 0.84 | 0.81 | 0.79 | 0.74
303.15 K | 2.02 | 1.63 | 1.31 | 1.02 | 0.88 | 0.79 | 0.76 | 0.74 | 0.73 | 0.69
308.15 K | 1.72 | 1.42 | 1.18 | 0.95 | 0.83 | 0.74 | 0.71 | 0.69 | 0.67 | 0.64
313.15 K | 1.48 | 1.23 | 1.04 | 0.85 | 0.76 | 0.69 | 0.67 | 0.65 | 0.63 | 0.6
318.15 K | 1.27 | 1.07 | 0.91 | 0.76 | 0.69 | 0.64 | 0.62 | 0.61 | 0.59 | 0.56
323.15 K | 1.11 | 0.94 | 0.81 | 0.69 | 0.63 | 0.59 | 0.58 | 0.58 | 0.56 | 0.53
